According to ChEMBL document CHEMBL2424637, “Nucleophilic substitution reactions of 1,4-naphthoquinone and biologic properties of novel S-, S,S-, N-, and N,S-substituted 1,4-naphthoquinone derivatives” (2013):
In brackets after ≈: the same amount, converted by molar mass. Activity calls are given as the source filed them. The calls are words filed in the database; no cut-off is given here.

Tests used:
Assay type in all cases: functional
[1] = test system: Mycobacterium; experiment: Antibacterial activity against Mycobacterium luteum B-917 at 0.1% after 24 hrs by agar disk diffusion technique
[2] = test system: Escherichia coli; experiment: Antibacterial activity against Escherichia coli B-906 at 0.1% after 24 hrs by agar disk diffusion technique
[3] = test system: Yamadazyma tenuis; experiment: Antifungal activity against Candida tenuis VKM Y-70 at 0.5% after 48 to 72 hrs by agar disk diffusion technique
[4] = test system: Escherichia coli; experiment: Antibacterial activity against Escherichia coli B-906 after 24 to 72 hrs by serial dilution technique
[5] = test system: Mycobacterium; experiment: Antibacterial activity against Mycobacterium luteum B-917 at 0.5% after 24 hrs by agar disk diffusion technique
[6] = test system: Yamadazyma tenuis; experiment: Antifungal activity against Candida tenuis VKM Y-70 after 24 to 72 hrs by serial dilution technique
[7] = test system: Aspergillus niger; experiment: Antifungal activity against Aspergillus niger F-1119 after 24 to 72 hrs by serial dilution technique
[8] = test system: Aspergillus niger; experiment: Antifungal activity against Aspergillus niger F-1119 at 0.5% after 48 to 72 hrs by agar disk diffusion technique
[9] = test system: Yamadazyma tenuis; experiment: Antifungal activity against Candida tenuis VKM Y-70 at 0.1% after 48 to 72 hrs by agar disk diffusion technique
[10] = test system: Escherichia coli; experiment: Antibacterial activity against Escherichia coli B-906 at 0.5% after 24 hrs by agar disk diffusion technique
[11] = test system: Aspergillus niger; experiment: Antifungal activity against Aspergillus niger F-1119 at 0.1% after 48 to 72 hrs by agar disk diffusion technique
[12] = test system: Staphylococcus aureus; experiment: Antibacterial activity against Staphylococcus aureus 209-P at 0.5% after 24 hrs by agar disk diffusion technique
[13] = test system: Staphylococcus aureus; experiment: Antibacterial activity against Staphylococcus aureus 209-P at 0.1% after 24 hrs by agar disk diffusion technique
[14] = test system: Staphylococcus aureus; experiment: Antibacterial activity against Staphylococcus aureus 209-P after 24 to 72 hrs by serial dilution technique
[15] = test system: Mycobacterium; experiment: Antibacterial activity against Mycobacterium luteum B-917 after 24 to 72 hrs by serial dilution technique

Compound	diameter of the inhibition zone (DIZ) [1]	diameter of the inhibition zone (DIZ) [2]	diameter of the inhibition zone (DIZ) [3]	MIC [4]	diameter of the inhibition zone (DIZ) [5]	MIC [6]	MIC [7]	diameter of the inhibition zone (DIZ) [8]	diameter of the inhibition zone (DIZ) [9]	diameter of the inhibition zone (DIZ) [10]	diameter of the inhibition zone (DIZ) [11]	diameter of the inhibition zone (DIZ) [12]	diameter of the inhibition zone (DIZ) [13]	MIC [14]	MIC [15]
O=C1C(Sc2cc(Cl)ccc2Cl)=C(Sc2cc(Cl)ccc2Cl)C(=O)c2ccccc21	0 mm	0 mm	7 mm	inactive	0 mm	500 µg/mL (≈ 976 µM)	inactive	0 mm	0 mm	0 mm	0 mm	0 mm	0 mm	inactive	inactive
O=C1C(Sc2c(Cl)c(Cl)c(Cl)c(Cl)c2Cl)=C(N2CCOCC2)C(=O)c2ccccc21	0 mm	0 mm	0 mm	inactive	0 mm	inactive	inactive	0 mm	0 mm	0 mm	0 mm	0 mm	0 mm	inactive	inactive
COC(=O)CCSC1=C(Sc2c(Cl)c(Cl)c(Cl)c(Cl)c2Cl)C(=O)c2ccccc2C1=O	6 mm	0 mm	0 mm	inactive	10.7 mm	62.5 µg/mL (≈ 112 µM)	inactive	0 mm	0 mm	0 mm	0 mm	0 mm	0 mm	250 µg/mL (≈ 449 µM)	15.6 µg/mL (≈ 28 µM)
COc1ccc(CSC2=C(SCc3ccc(OC)cc3)C(=O)c3ccccc3C2=O)cc1	0 mm	0 mm	11.7 mm	inactive	7 mm	62.5 µg/mL (≈ 135 µM)	250 µg/mL (≈ 540 µM)	7.4 mm	7.4 mm	0 mm	0 mm	0 mm	0 mm	inactive	inactive
O=C1C(Cl)=C(N2CCN(c3ccc([N+](=O)[O-])cc3)CC2)C(=O)c2ccccc21	0 mm	0 mm	15.7 mm	inactive	0 mm	31.2 µg/mL (≈ 78.4 µM)	31.2 µg/mL (≈ 78.4 µM)	13.7 mm	8.5 mm	0 mm	0 mm	0 mm	0 mm	inactive	inactive
